Measured values from US10377753B2, “Substituted 4-azaindoles and their use as GluN2B receptor modulators” (Janssen Pharmaceutica NV, priority 2015, dated 2019).

Target: cloned human NR1/NR2B ion channels (Homo sapiens (Human), UniProt Q05586+Q13224)
Test: HNR2BC: effects of test articles on cloned human NR1/NR2B ion channels expressed in mammalian cells (FLIPR calcium flux)
Assay type: cell-based
Conditions: cloned human NR1/NR2B ion channels, Table 5
Summary of the method: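 In a stable Tet-On-induced cell line expressing human GluN1/GluN2B, Calcium 5-loaded cells were preincubated 5 min with compound, then stimulated 5 min with glutamate at ~EC80 plus 10 μM glycine, in pH 7.4 HEPES buffer. FLIPR calcium fluorescence was normalized to control wells.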

Sequence of cloned human NR1/NR2B ion channels (Q13224 27-1484, other chains not shown): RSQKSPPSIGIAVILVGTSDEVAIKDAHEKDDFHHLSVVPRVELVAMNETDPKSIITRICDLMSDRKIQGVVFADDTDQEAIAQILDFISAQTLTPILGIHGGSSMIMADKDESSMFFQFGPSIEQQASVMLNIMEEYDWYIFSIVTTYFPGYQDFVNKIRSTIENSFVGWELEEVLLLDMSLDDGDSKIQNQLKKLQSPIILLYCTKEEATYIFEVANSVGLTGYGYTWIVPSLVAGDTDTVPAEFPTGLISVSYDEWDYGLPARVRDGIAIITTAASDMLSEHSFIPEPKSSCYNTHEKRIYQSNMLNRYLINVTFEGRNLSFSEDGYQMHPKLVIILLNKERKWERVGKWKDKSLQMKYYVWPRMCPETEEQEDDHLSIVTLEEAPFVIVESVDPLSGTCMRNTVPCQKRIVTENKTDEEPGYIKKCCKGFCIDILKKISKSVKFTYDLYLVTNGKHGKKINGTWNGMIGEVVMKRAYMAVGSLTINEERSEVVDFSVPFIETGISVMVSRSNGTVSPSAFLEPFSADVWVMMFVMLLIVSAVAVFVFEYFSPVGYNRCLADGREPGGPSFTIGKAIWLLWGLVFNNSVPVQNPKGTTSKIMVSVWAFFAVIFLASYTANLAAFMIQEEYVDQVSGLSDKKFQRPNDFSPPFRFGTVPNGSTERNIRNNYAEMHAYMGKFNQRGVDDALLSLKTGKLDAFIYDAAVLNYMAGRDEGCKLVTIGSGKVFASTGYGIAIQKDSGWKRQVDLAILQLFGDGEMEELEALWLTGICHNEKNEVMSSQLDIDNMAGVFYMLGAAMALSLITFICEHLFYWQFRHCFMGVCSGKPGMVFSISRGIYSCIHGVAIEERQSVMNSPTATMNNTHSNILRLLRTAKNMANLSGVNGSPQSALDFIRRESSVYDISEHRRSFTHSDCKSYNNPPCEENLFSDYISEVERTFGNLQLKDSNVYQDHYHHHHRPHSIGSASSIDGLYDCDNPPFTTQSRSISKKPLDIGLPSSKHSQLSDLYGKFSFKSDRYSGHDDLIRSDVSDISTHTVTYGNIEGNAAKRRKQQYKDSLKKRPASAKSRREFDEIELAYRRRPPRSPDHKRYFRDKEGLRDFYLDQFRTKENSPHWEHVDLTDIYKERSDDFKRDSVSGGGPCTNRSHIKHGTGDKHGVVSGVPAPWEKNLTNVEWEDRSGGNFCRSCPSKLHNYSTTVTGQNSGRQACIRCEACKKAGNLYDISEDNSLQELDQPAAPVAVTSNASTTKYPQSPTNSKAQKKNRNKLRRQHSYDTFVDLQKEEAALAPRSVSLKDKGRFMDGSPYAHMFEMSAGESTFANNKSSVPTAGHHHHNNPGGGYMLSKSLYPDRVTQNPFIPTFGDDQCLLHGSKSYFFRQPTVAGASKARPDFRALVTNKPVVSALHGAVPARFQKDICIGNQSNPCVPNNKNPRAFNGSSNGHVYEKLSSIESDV

| SMILES | IC50 |
| --- | --- |
| CCN(C)C(=O)Cn1cc(C)c2ncc(-c3ccc(F)c(C)c3)cc21 [Example 617, N-Ethyl-2-[6-(4-fluoro-3-methyl-phenyl)-3-methyl-pyrrolo[3,2-b]pyridin-1-yl]-N-methyl-acetamide] | 50.1 nM |
| Cc1cc(-c2cnc3c(C)cn(CC(=O)N4CC(F)(F)C4)c3c2)ccc1F [Example 618, 1-(3,3-Difluoroazetidin-1-yl)-2-[6-(4-fluoro-3-methyl-phenyl)-3-methyl-pyrrolo[3,2-b]pyridin-1-yl]ethanone] | 31.6 nM |
| Cc1cn(CC(=O)N2CCCC2)c2cc(-c3ccc(F)c(F)c3)cnc12 [Example 619, 2-[6-(3,4-Difluorophenyl)-3-methyl-pyrrolo[3,2-b]pyridin-1-yl]-1-pyrrolidin-1-yl-ethanone] | 39.8 nM |
| CCN(C)C(=O)Cn1cc(C)c2ncc(-c3ccc(F)c(F)c3)cc21 [Example 620, 2-[6-(3,4-Difluorophenyl)-3-methyl-pyrrolo[3,2-b]pyridin-1-yl]-N-ethyl-N-methyl-acetamide] | 25.1 nM |
| Cc1cn(CC(=O)N2CC(F)(F)C2)c2cc(-c3ccc(F)c(F)c3)cnc12 [Example 621, 1-(3,3-Difluoroazetidin-1-yl)-2-[6-(3,4-difluorophenyl)-3-methyl-pyrrolo[3,2-b]pyridin-1-yl]ethanone] | 631 nM |
| Cc1c(F)ccc(-c2cnc3c(C)cn(CC(=O)N(C)C)c3c2)c1F [Example 622, 2-[6-(2,4-Difluoro-3-methyl-phenyl)-3-methyl-pyrrolo[3,2-b]pyridin-1-yl]-N,N-dimethyl-acetamide] | 100 nM |
| Cc1cn(CC(=O)N2CCCC2)c2cc(-c3cc(F)cc(F)c3)cnc12 [Example 623, 2-[6-(3,5-Difluorophenyl)-3-methyl-pyrrolo[3,2-b]pyridin-1-yl]-1-pyrrolidin-1-yl-ethanone] | 15.8 nM |
| Cc1c(F)ccc(-c2cnc3c(C)cn(CC(=O)N4CCCC4)c3c2)c1F [Example 624, 2-[6-(2,4-Difluoro-3-methyl-phenyl)-3-methyl-pyrrolo[3,2-b]pyridin-1-yl]-1-pyrrolidin-1-yl-ethanone] | 79.4 nM |
| CCN(C)C(=O)Cn1cc(C)c2ncc(-c3ccc(F)c(C)c3F)cc21 [Example 625, 2-[6-(2,4-Difluoro-3-methyl-phenyl)-3-methyl-pyrrolo[3,2-b]pyridin-1-yl]-N-ethyl-N-methyl-acetamide] | 100 nM |

More lines, now with the values ahead:

| IC50 | SMILES |
| --- | --- |
| 631 nM | Cc1c(F)ccc(-c2cnc3c(C)cn(CC(=O)N4CC(F)(F)C4)c3c2)c1F [Example 626, 1-(3,3-Difluoroazetidin-1-yl)-2-[6-(2,4-difluoro-3-methyl-phenyl)-3-methyl-pyrrolo[3,2-b]pyridin-1-yl]ethanone] |
| 158 nM | Cc1c(F)ccc(-c2cnc3c(C)cn(CC(=O)N4CCC4)c3c2)c1F [Example 627, 1-(Azetidin-1-yl)-2-[6-(2,4-difluoro-3-methyl-phenyl)-3-methyl-pyrrolo[3,2-b]pyridin-1-yl]ethanone] |
| 100 nM | Cc1cn(CC(=O)N(C)C)c2cc(-c3ccc(Cl)s3)cnc12 [Example 628, 2-[6-(5-Chloro-2-thienyl)-3-methyl-pyrrolo[3,2-b]pyridin-1-yl]-N,N-dimethyl-acetamide] |
| 39.8 nM | Cc1c(F)ccc(-c2cnc3c(C)cn(CC(=O)N4CC(F)C4)c3c2)c1F [Example 629, 2-[6-(2,4-Difluoro-3-methyl-phenyl)-3-methyl-pyrrolo[3,2-b]pyridin-1-yl]-1-(3-fluoroazetidin-1-yl)ethanone] |
| 251 nM | CCN(C)C(=O)Cn1cc(C)c2ncc(-c3ccc(C)s3)cc21 [Example 630, N-Ethyl-N-methyl-2-[3-methyl-6-(5-methyl-2-thienyl)pyrrolo[3,2-b]pyridin-1-yl]acetamide] |
| 158 nM | Cc1ccc(-c2cnc3c(C)cn(CC(=O)N4CCCC4)c3c2)s1 [Example 631, 2-[3-Methyl-6-(5-methyl-2-thienyl)pyrrolo[3,2-b]pyridin-1-yl]-1-pyrrolidin-1-yl-ethanone] |
| 200 nM | Cc1ccc(-c2cnc3c(C)cn(CC(=O)N4CC(F)(F)C4)c3c2)s1 [Example 632, 1-(3,3-Difluoroazetidin-1-yl)-2-[3-methyl-6-(5-methyl-2-thienyl)pyrrolo[3,2-b]pyridin-1-yl]ethanone] |
| 50.1 nM | Cc1ccc(-c2cnc3c(C)cn(CC(=O)N4CCC4)c3c2)s1 [Example 633, 1-(Azetidin-1-yl)-2-[3-methyl-6-(5-methyl-2-thienyl)pyrrolo[3,2-b]pyridin-1-yl]ethanone] |
| 631 nM | Cc1ccc(-c2cnc3c(C)cn(CC(=O)N4CC(F)C4)c3c2)s1 [Example 634, 1-(3-Fluoroazetidin-1-yl)-2-[3-methyl-6-(5-methyl-2-thienyl)pyrrolo[3,2-b]pyridin-1-yl]ethanone] |
| 316 nM | Cc1cn(CC(=O)N2CC(F)C2)c2cc(-c3cc(F)cc(F)c3)cnc12 [Example 635, 2-[6-(3,5-Difluorophenyl)-3-methyl-pyrrolo[3,2-b]pyridin-1-yl]-1-(3-fluoroazetidin-1-yl)ethanone] |
| 158 nM | Cc1cn(CC(=O)N2CC(F)C2)c2cc(-c3ccc(Cl)s3)cnc12 [Example 636, 2-[6-(5-Chloro-2-thienyl)-3-methyl-pyrrolo[3,2-b]pyridin-1-yl]-1-(3-fluoroazetidin-1-yl)ethanone] |
| 316 nM | Cc1ccc(-c2cnc3c(C)cn(CC(=O)N(C)C)c3c2)s1 [Example 637, N,N-Dimethyl-2-[3-methyl-6-(5-methyl-2-thienyl)pyrrolo[3,2-b]pyridin-1-yl]acetamide] |
| 126 nM | Cc1cn(CC(=O)N2CC(F)C2)c2cc(-c3ccccc3F)cnc12 [Example 638, 1-(3-Fluoroazetidin-1-yl)-2-[6-(2-fluorophenyl)-3-methyl-pyrrolo[3,2-b]pyridin-1-yl]ethanone] |
| 200 nM | CN(C)C(=O)Cn1ccc2ncc(-c3ccc(C(F)F)s3)cc21 [Example 639, 2-[6-[5-(Difluoromethyl)-2-thienyl]pyrrolo[3,2-b]pyridin-1-yl]-N,N-dimethyl-acetamide] |
